The subject of this assay is severe systemic inflammatory response syndrome (SIRS). Put plainly: Treatment of intensive-care patients with severe SIRS / septic shock by continuous administration of sodium selenite (case reports). Type of assay: in vivo, human. As for the experimental part:
A patient, 75 kg, chronic alcoholic with no history of icteroascitic, hemorrhagic or encephalopathic compensation, was admitted to postoperative intensive care with generalized purulent peritonitis from colonic perforation during an attack of diverticular sigmoiditis.
His initial hemodynamics were maintained by perfusion. […] There was a moderate renal insufficiency. An adapted empirical antibiotic therapy was begun, and modified after 48 hours in view of the antiobiograms. At 24 hours severity indexes were IGS II 29, APACHE II 17 and SOFA score was 5. One day after the operation, the situation worsened rapidly with onset of a state of shock with lactic acidosis 5 μmol/l requiring administration of dopamine then rapidly noradrenaline up to 4 mg/h (0.9 μg/kg/min). There was a deterioration of respiratory state requiring increase of the FiO2 because of the onset of an acute adult respiratory distress syndrome (ARDS). As soon as the necessity of noradrenaline administration was recognized, a treatment with sodium selenite by continuous administration was begun at a dose of 4 mg of atomic selenium equivalent over the first 24 hours, followed by continuous administration of sodium selenite at a dose of 1 mg of atomic selenium equivalent for 10 days.
A patient, depressive, anorexic, 51 kg and 1.75 m tall, was admitted on a tentative diagnosis of drug-induced suicide with ingestion of a large amount of analgesics and sedatives. The diagnosis was rapidly changed to generalized purulent peritonitis from a perforated gastric ulcer. They were transferred to postoperative intensive care. There was also a shock condition requiring perfusion and introduction of catechol amines as noradrenaline and dolbutamine; lactic acidosis at 6 μmol/l. Antibacterial and antifungal antibiotic therapy was performed. Diuresis was maintained under diuretics. One hour after the start of noradrenaline administration, a treatment with sodium selenite by continuous administration was begun at a dose of 4 mg of atomic selenium equivalent over the first 24 hours, followed by continuous administration of sodium selenite at a dose of 1 mg of atomic selenium equivalent for 10 days. At 24 hours the severity indexes were IGS II 44, APACHE II 35. The SOFA score was 8.
A patient, presenting major alcohol-tobacco addiction (more than 1 liter of wine per day, 2 packets of cigarettes per day), chronic BPCO respiratory insufficiency, stage 2 arteritis of the lower limbs and deterioration in general health for several months with a productive cough, was transferred to intensive care after a short stay in general medicine. At admission there was a respiratory distress requiring emergency intubation-ventilation. Blood gases confirmed major respiratory acidosis. The patient was feverish. There was a hyperleucocytosis of 24 000 leucocytes of which 88% were polymorphonuclear cells. Blood pressure was stable under perfusion, however there were blotches on the knees. There were no coagulation problems nor renal insufficiency. At 24 hours IGS II was 41, APACHE II 26, and SOFA score 8. Lung samples taken by protected telescopic brush and brochoalveolar washing confirmed the diagnosis of community-acquired pneumonia: 47% of cells infected, Haemophilus influenza β-lactamase negative and wild-type streptococcal anginosis.
The immediate development was marked by a rapid deterioration of respiratory state with necessity of ventilation at FiO2 100%, PEP 8. In addition, very substantial perfusion was necessary with measurement of pressure by right catheterization. Dopamine had to be administered at 10 μg/kg/min. After 8 hours dopamine administration, a treatment with sodium selenite by continuous administration was begun at a dose of 4 mg of atomic selenium equivalent over the first 24 hours, followed by continuous administration of sodium selenite at a dose of 1 mg of atomic selenium equivalent for 10 days. […]

Turning to `O=[Se](O)O` [sodium selenite, Sodium selenite [Na2O3Se]], the “left intensive care, time after the operation” value (Example 1) is given as 10 days. Moreover, the platelet level result (Example 1, no disseminated intravascular coagulation) is recorded as “higher than 150 000 platelets/mm^3”. Also, under “Example 2”, the “extubation, time after the operation” value was 20 days and the platelet level came out at 50%. Further, for the setting “Example 2: patient, purulent peritonitis, shock, 4 mg atomic selenium equivalent over first 24 hours, then 1 mg for 10 days”, the “time to regression of the shock condition” value is 24 h. For the same compound, the “hyperlactatemia, maximum (then reduced as from the second day)” value (Example 3) amounted to 10 µmol/L. Further, the “thrombopenia, platelets” value (Example 3, moderate CIVD) was 7500 platelets/mm^3.

The values are drawn from patent publication US7635491B2, “Method for administering selenium for treating patients suffering from systemic inflammatory response syndrome (SIRS), and composition for implementing the treatment” (priority 1998, dated 2009).
